Patent publication US20260325538A1, “THERAPY” (priority 2023, published 2026)

What was measured:
[1] = system: Klebsiella pneumoniae Kpn St147 (NDM-1 and KPC-2); assay: MIC determination of cefepime with zinc chelator and avibactam (checkerboard, broth microdilution); format: cell-based; details: with FEP and zinc chelator
Protocol: (§1) Antimicrobial susceptibility testing (AST) by broth microdilution was performed according to The European Committee on Antimicrobial Susceptibility Testing. Reading guide for broth microdilution. Version 4.0, 2022 (see: http://www.eucast.org).
(§2) Checkerboard 96-well plates (Corning 3788) were made by conducting serial two-fold dilutions of cefepime in cation-adjusted Mueller Hinton II broth (caMHB; Thermo Scientific, T3462), in columns across the microtiter plate (64-0.03 μg/ml). Additionally, avibactam was added to rows 3 to 8 in concentrations of 64, 16, 8, 4, 1 and 0.25 μg/ml, respectively. The zinc chelator was added to the wells of the plate, where applicable. Three plates were made per experiment, one without the zinc chelator (plate 1), one with 16 μg/ml of the zinc chelator (plate 2) and one with 32 μg/ml of the zinc chelator (plate 3). The first row in all plates was used as a positive control for cefepime only, and the second row included the zinc chelator in addition to cefepime (no avibactam added to rows 1 or 2). The zinc chelator was added at the indicated concentration, to rows 3-8 of plates 2 and 3.
(§3) The effect of the combination of zinc chelator/FEP/avibactam was tested on a clinically isolated Klebsiella pneumoniae Kpn St147 actively constitutionally expressing the two resistance mechanisms NDM-1 and KPC-2 simultaneously. As a negative control, bacteria+FEP was tested alone. As a positive control, bacteria+FEP+zinc chelator was used. In Tables 1 and 2, concentrations (μg/ml) of FEP are given in the top row left to right and avibactam concentrations (μg/ml) are given top to bottom in column 1.
(§4) The fractional inhibitory concentration (FIC) is defined as the concentration that kills when used in combination with another agent divided by the concentration that has the same effect when used alone. The FIC index (FICI) for the combination of two agents is the sum of their individual FIC values. […] The European Committee for Antimicrobial Susceptibility Testing (EUCAST) of the European Society of Clinical Microbiology and Infectious Diseases (ESCMID) 2000 adopts the following definitions to determine the susceptibility of bacteria to an antimicrobial agent (see EUCAST Definitive Document E. Def 1.2: Terminology relating to methods for the determination of susceptibility of bacteria to antimicrobial agents. Clin. Microbiol. Infect. 2000; 6(9): 503-508): • FICI value≤0.5; synergy • 0.5<FICI value≤1; additive effect • 1<FICI value≤2; indifferent effect • FICI≥2; antagonistic effect
To test for synergy, all data were subjected to the following formula in which A=zinc chelator; B=cefepime; and C=avibactam:
(§5) ΣFICI=MICA(combination)/MICA (alone)+MICB(combination)/MICB (alone)+MICC(combination)/MICC (alone)

[2] = system: Klebsiella pneumoniae Kpn St147 (NDM-1 and KPC-2); assay: MIC determination of ceftazidime with zinc chelator and avibactam (checkerboard, broth microdilution); format: cell-based; details: with CAZ and zinc chelator
Text: as §4, §1
as §2, with “CAZ” for “cefepime”, “Three plates were made per experiment, one without the zinc chelator (plate 1), one with 16 μg/ml of the zinc chelator (plate 2) and one with 32 μg/ml of the zinc chelator (plate 3).” left out, “concentration” for “concentration,”
as §3, with “zinc chelator/CAZ/avibactam” for “zinc chelator/FEP/avibactam”, “control, bacteria+CAZ” for “control, bacteria+FEP”, “control, bacteria+CAZ+zinc” for “control, bacteria+FEP+zinc”, “Tables 3” for “Tables 1”, “and 4,” for “and 2,”, “of CAZ” for “of FEP”
as §5

MBL-producers = details: in combination with cefepime; cited from earlier work
MBL class IMP = details: in combination with cefepime; cited from earlier work
NDM = details: cited from earlier work
[3] = system: gram-negative bacteria with MBL, for example Klebsiella pneumoniae, E. coli and Pseudomonas aeruginosa; details: meropenem used alone; cited from earlier work

NC(=O)[C@@H]1CC[C@@H]2CN1C(=O)N2OS(=O)(=O)O [Avibactam, avibactam]
FICI Avibactam ([1]; avibactam 0.25 μg/mL): 0.0001
FICI Avibactam ([1]; avibactam 1 μg/mL): 0.0005
FICI Avibactam ([1]; avibactam 4 μg/mL): 0.0020
FICI Avibactam ([1]; avibactam 8 μg/mL): 0.0039
FICI Avibactam ([1]; avibactam 16 μg/mL): 0.0078
FICI Avibactam ([2]; avibactam 0.25 μg/mL): 0.0001
FICI Avibactam ([2]; avibactam 1 μg/mL): 0.0005
FICI Avibactam ([2]; avibactam 4 μg/mL): 0.0020
FICI Avibactam ([2]; avibactam 8 μg/mL): 0.0039
FICI Avibactam ([2]; avibactam 16 μg/mL): 0.0078

NCCN[C@H]1CC[C@H](CC(=O)N[C@H]2Cc3cccc(C(=O)O)c3OB2O)CC1 [taniborbactam]
activity against MBL-producers (MBL-producers): potent activity
effect against MBL class IMP (MBL class IMP): no effect

N[C@@H](CN[C@@H](CN[C@@H](CC(=O)O)C(=O)O)C(=O)O)C(=O)O [aspergillomarasmine A]
in vivo activity (NDM; mouse models): shown in vivo activity in mouse models
doses required to reverse carbapenem resistance (NDM; mouse, in vivo): relatively high doses

C[C@@H](O)[C@H]1C(=O)N2C(C(=O)O)=C(S[C@@H]3CN[C@H](C(=O)N(C)C)C3)[C@H](C)[C@H]12 [meropenem]
sensitivity of gram-negative bacteria with MBL [3]: resistant to the antibiotic
